According to patent US10238622B2, “Methods of treating and preventing/reducing the likelihood of Mesial temporal lobe epilepsy (TLE)” (priority 2009, dated 2019):

What was measured:
Li-pilocarpine SE rats [1] = assay: Lithium-pilocarpine status epilepticus induction, drugs given 1 hour after SE onset; type: in vivo, rat; settings: Diazepam 4 mg/kg i.m.; for effect on seizures (status epilepticus): given 1 hour after SE onset, Atropine sulfate 10 mg/kg s.c.
Method: (§1) All procedures were approved by the Institutional Animal Care and Use Committee at the University of New Mexico Health Sciences Center and were in accordance with National Institutes of Health Guide for the Care and Use of Laboratory Animals. Our protocol for the experiments here was a slight modification of a protocol published by Andre et al. (Andre et al., 2007). Twenty four hours prior to seizure induction, male Wistar rats, 2-3 months old, were administered s.c. 3 mmol/kg lithium chloride dissolved in isotonic NaCl saline Pilocarpine was then administered s.c. (25 mg/kg in isotonic NaCl). Once generalized limbic convulsions began, subcutaneous needle EEG electrodes were placed to confirm the development of status epilepticus (SE), defined as the occurrence of continuous high amplitude EEG spiking (Ormandy et al., 1989). These needles were fashioned from 25 gauge hypodermic needles (Becton Dickinson), with the hub cut off and bent at 60 degree angles so they will stay in place. One needle was inserted subcutaneously in the scalp over the parietal cortex and the other, which served as the reference electrode, over the scapula. […] Recording was then generally discontinued. Atropine sulfate (10 mg/kg s.c.) and Diazepam (4 mg/kg i.m.) were administered in order to improve survival, decrease anxiety and induce muscle relaxation. […] 12 hours after SE onset the EEG was recorded again for 5-10 min, and all rats had intermittent or organized, i.e. bursts of EEG spiking.

EC L5 neurons [2] = assay: GABAAergic PSP reversal potential, sharp microelectrode recording in acute brain slices 3 weeks post SE; type: cell-based, rat
Method: (§2) All experiments were performed on acute horizontal brain slices containing temporal neocortex, entorhinal cortex, subiculum and the ventral hippocampus. Control, or rats 2 or 3 weeks post-seizure, were anesthetized deeply with a mixture of ketamine and xylazine (85 and 15 mg/ml, respectively) and decapitated. The brains were removed rapidly and placed in an oxygenated (95% O2/5% CO2) ice-cold cutting solution containing (in mM): 3 KCl, 1.25 NaH2PO4, 6 MgSO4, 26 NaHCO3, 0.2 CaCl2, 10 glucose, 220 sucrose, and 0.43 ketamine. Slices (350 μm) were cut in ice-cold cutting solution with a vibratome (Dosaka DTK-1000) and transferred from there into Artificial Cerebro-Spinal Fluid (ACSF, in mM: 126 NaCl, 3 KCl, 1.25 NaH2PO4, 1 MgSO4, 26 NaHCO3, 2 CaCl2, and 10 glucose) equilibrated with 95% O2/5% CO2 at 34° C. temperature for recovery. After 1 hr ACSF was changed again, and the slices were held at room temperature until used for recording.
(§3) Individual slices were transferred to a recording chamber mounted on a fixed-stage microscope (Zeiss Axioskop, Jena, Germany) and superfused with warmed (34° C.), oxygenated ACSF at 2 ml/min. Intracellular recordings were made from EC layer 5 neurons with borosilicate glass sharp microelectrodes (80-150 MΩ) filled with either 1 M K2SO4, or 0.5 M potassium acetate/0.5 M KCl for lower electrode resistance, or 2 M CsSO4/0.1 M KCl for improved space clamp. […] Therefore all final recordings/data for bumetanide effects on GABAergic PSP reversal potential were obtained with microelectrodes filled with 1 M K2SO4 or 2 M CsSO4/0.1 M KCl.
(§4) Neurons were impaled in the medial entorhinal cortex just above the angular bundle, up to ¼ of cortex thickness, using a Nanostepper micropositioner (Scientific Precision Instruments, Oppenheim, Germany). Recordings were made using an Axoclamp 2B amplifier and digitized and recorded using an Axon Instruments Digidata 1322A (Molecular Devices, Union City, Calif.). Neurons with a RMP negative to −68 mV were tested with hyperpolarizing pulses to ˜−85 mV for the presence of Ih indicative of pyramidal neurons (Egorov et al., 2002; Egorov et al., 2003). […] Concentric bipolar stimulating electrodes (200 μm diameter, FHC Inc., ME, USA) were placed in layer 5 of EC, ˜150-250 μm from the recording electrode. Stimuli (70-100 μs, 100-800 nA) were controlled by a Master 8 programmable pulse generator connected to a stimulus isolation unit (A.M.P.I., Jerusalem, Israel). Full input-output relations for the EPSP and the IPSP were recorded, and stimulation intensities giving 70-90% of maximal response were used. Where indicated stimulation intensity was reduced to elicit 5-10% of maximal response.

EC L5 neurons [3] = assay: Polysynaptic burst responses to single synaptic stimulation in acute brain slices 3 weeks post SE; type: cell-based, rat
Method: as §2, §3, §4
For these determinations, a polysynaptic burst was defined as a post-synaptic response lasting more than 150 ms at half amplitude, elicited from −75 mV<RMP<−68 mV.

Li-pilocarpine SE rats [4] = assay: Seizures after acute bumetanide injection, video recordings, 12-17 weeks after SE (FIG. 12); type: in vivo, rat; settings: bumetanide 0.2 mg/kg body weight i.p., 12-17 weeks after Li-pilocarpine SE, n=5 rats
Method: All procedures were approved by the Institutional Animal Care and Use Committee at the University of New Mexico Health Sciences Center and were in accordance with National Institutes of Health Guide for the Care and Use of Laboratory Animals. Our protocol for the experiments here was a slight modification of a protocol published by Andre et al. (Andre et al., 2007). Twenty four hours prior to seizure induction, male Wistar rats, 2-3 months old, were administered s.c. 3 mmol/kg lithium chloride dissolved in isotonic NaCl saline Pilocarpine was then administered s.c. (25 mg/kg in isotonic NaCl). Once generalized limbic convulsions began, subcutaneous needle EEG electrodes were placed to confirm the development of status epilepticus (SE), defined as the occurrence of continuous high amplitude EEG spiking (Ormandy et al., 1989). These needles were fashioned from 25 gauge hypodermic needles (Becton Dickinson), with the hub cut off and bent at 60 degree angles so they will stay in place. […] 12 hours after SE onset the EEG was recorded again for 5-10 min, and all rats had intermittent or organized, i.e. bursts of EEG spiking.
Five Li-pilocarpine SE rats were subjected to a sequence of bumetanide or vehicle injections (5% ethanol in physiological saline, i.p., dates given on bottom line), and seizures occurring in the following 8 hours were analyzed by video recordings.

Li-pilocarpine SE rats [5] = assay: Spontaneous seizures with chronic bumetanide via the drinking water, 8 hour video recording (FIG. 18, 19); type: in vivo, rat
Method: as §1, with “discontinued.” for “discontinued. Atropine sulfate (10 mg/kg s.c.) and Diazepam (4 mg/kg i.m.) were administered in order to improve survival, decrease anxiety and induce muscle relaxation.”, “spiking. […]” for “spiking.”

pilocarpine SE rat = assay: Seizures provoked by open field exposure 6 weeks after end of chronic bumetanide treatment (FIG. 20); type: in vivo; settings: 27 weeks post SE, 6 weeks after end of bumetanide treatment, within 15 min, n=6 rats per group
Method: as §1, with “discontinued.” for “discontinued. Atropine sulfate (10 mg/kg s.c.) and Diazepam (4 mg/kg i.m.) were administered in order to improve survival, decrease anxiety and induce muscle relaxation.”, “spiking. […]” for “spiking.”

post SE rats = assay: Entering-a-dark box behavior in an open field (FIG. 21); type: in vivo, rat; settings: chronic bumetanide from day 16 post SE for 12 weeks, 8 rats; control rats 78%, untreated post SE rats 15%
Method: as §1, with “discontinued.” for “discontinued. Atropine sulfate (10 mg/kg s.c.) and Diazepam (4 mg/kg i.m.) were administered in order to improve survival, decrease anxiety and induce muscle relaxation.”, “spiking. […]” for “spiking.”

adult rat TLE model = settings: infusion of very high doses, first 2 weeks after SE; cited from earlier work

For CN1C(=O)CN=C(c2ccccc2)c2cc(Cl)ccc21 [Diazepam], the muscle relaxation (Li-pilocarpine SE rats [1]) was “induced muscle relaxation within one hour” and the “effect on seizures (status epilepticus)” value (Li-pilocarpine SE rats [1]) was “did not stop seizures”.

In the case of CN1[C@@H]2CC[C@H]1CC(OC(=O)C(CO)c1ccccc1)C2.CN1[C@@H]2CC[C@H]1CC(OC(=O)C(CO)c1ccccc1)C2.O=S(=O)(O)O (stereo partly shown) [atropine, Atropine sulfate], the “effect on seizures (status epilepticus)” value (Li-pilocarpine SE rats [1]) is reported as “Nor did atropine stop seizures”.

For CCCCNc1cc(C(=O)O)cc(S(N)(=O)=O)c1Oc1ccccc1 [bumetanide], the “E(PSP) of an EC L5 neuron after a 20 min exposure to bumetanide (FIG. 10A)” value (EC L5 neurons [2]; 3 weeks after SE, CNQX 10 μM and APV 50 μM present, shifts from −29.7 mV) was −60.9 mV, the “reduction of driving force at −45 mV versus control rats” value (EC L5 neurons [2]; 3 weeks after SE, in the presence of bumetanide) was about 42% and the “driving force for Cl− at −45 mV in the presence of bumetanide” value (EC L5 neurons [2]; 3 weeks after SE, ˜26 mV in control rats) was about 15 mV. The “absolute voltage average E(PSP) during washout of bumetanide” value (EC L5 neurons [2]; 3 weeks post SE, n=5) was −34.2±3.4 mV, the “average PSP reversal potential relative to RMP” value (EC L5 neurons [2]; bumetanide 10 μM, EC L5 neurons 3 weeks post SE, RMP ˜−72 mV, more than +40 mV without drug) was “+10 mV” and the “neurons with a polysynaptic response after washout of bumetanide” value (EC L5 neurons [3]; 30 min washout, n=14) was 35.1%. The “decrease of response duration at half-maximal amplitude in bumetanide” value (EC L5 neurons [3]; bumetanide 10 μM, 3 weeks post SE) was 36±9 % of the control response, the “neurons with a polysynaptic response in bumetanide” value (EC L5 neurons [3]; bumetanide 10 μM, cells from rats 3 weeks after pilocarpine insult, n=14, 64.8% before drug) was 11.6% and the “response duration at half-maximal amplitude during washout of bumetanide” value (EC L5 neurons [3]; recovered to, relative to control response) was 75±11%. The “seizures occurring in the 8 hours following injection” value (Li-pilocarpine SE rats [4]) was “suppression of seizures”, the “rats in which bumetanide prevented seizures completely” value (Li-pilocarpine SE rats [5]; bumetanide via the drinking water, 0.65±0.13 mg/day, two other rats had reduced seizures) was 4 rats and the “seizure occurrence as % of seizures in time post SE-matched control SE rats” value (Li-pilocarpine SE rats [5]; three and six weeks after end of 20 weeks chronic bumetanide via drinking water, n=6 rats per group) was 15-22%. The “seizures provoked by open field exposure as % of time post SE-matched control SE rats” value (pilocarpine SE rat) was “less than 15%”, the “trials in which rats entered the dark box” value (post SE rats) was 67 % of trials and the “suppression of SRS by bumetanide treatment” value (adult rat TLE model) was “complete failure”.

For picrotoxin, the “number of spikes in polysynaptic burst responses in picrotoxin” value (EC L5 neurons [3]; picrotoxin 100 μM, 3 weeks post SE, n=8 neurons, 9.8±0.8 before drug) was 7.9±0.7 spikes per response, the “burst duration in picrotoxin, result in words” value (EC L5 neurons [3]; picrotoxin 100 μM, FIG. 11D) was “did not reach statistical significance” and the “reduction of action potential amplitudes in the averaged burst responses” value (EC L5 neurons [3]; picrotoxin 100 μM, averages of ten responses, n=8, p=0.094) was 10.5±3.4%. For the same molecule, the “decrease of the duration of polysynaptic bursts” value (EC L5 neurons [3]; picrotoxin 100 μM, trend, n=8, p=0.094) was 10.5%.
